Like-named read-outs stand apart in the source and are kept apart here.
Tests used:
HCT-116 colon carcinoma = experiment: Inhibition of Cell Proliferation, 14C-thymidine incorporation, HCT-116; type: cell-based; details: Homo sapiens; Cell Line HCT-116
Description: (§1) The ability of a test compound to inhibit the proliferation of cell growth was determined by measuring incorporation of ^14C-labelled thymidine into newly synthesized DNA within the cells. This method was used on cell lines derived from carcinomas originating from several tissues such as HeLa cervical adenocarcinoma (American Type Culture Collection (ATCC), Virginia, Cat. #CCL-2), A375 malignant melanoma (ATCC CRL-1619), SK-OV-3 ovarian adenocarcinoma (ATCC HTB-77) HCT-116 colon carcinoma (CCL-247), PC-3 prostate adenocarcinoma (ATCC CRL-1435), and MDA-MB-231 (Xenogen Corp.) In this way the effect of a compound on cell growth of cells with many different phenotypes can be determined. Cells were trypsinized and counted and 3000-8000 cells were added to each well of a 96-well CytoStar tissue culture treated scintillating microplate (Amersham #RPNQ0160) in complete medium in a volume of 100 µl. Cells were incubated for 24 hours in complete medium at 37°C in an atmosphere containing 5% CO2. Next, 1 µl of test compound in 100% DMSO was added to the wells of the plate. DMSO only was added to control wells. Cells were incubated for 24 more hours in complete medium at 37°C in an atmosphere containing 5% CO2. Methyl^14C-thymidine 56 mCi/mmol (NEN #NEC568 or Amersham #CFA532) was diluted in complete medium and 0.2 uCi/well was added to each well of the CytoStar plate in a volume of 20 ul. The plate was incubated for 24 hours at 37°C plus 5% CO2 in drug plus ^14C-thymidine. The contents of the plate were discarded into a ^14C radioactive waste container by inverting the plate and the plate was washed twice with 200 µl PBS. 200 µl of PBS is added to each well. The top of the plate was sealed with a transparent plate sealer and a white plate backing sealer (Packard #6005199) was applied to the bottom of the plate. The degree of methyl ^14C-thymidine incorporation was quantified on a Packard Top Count.

PKC (protein kinase-C) = experiment: Kinase Selectivity Assay PKC; type: biochemical, human
A375 malignant melanoma = experiment: Inhibition of Cell Proliferation, 14C-thymidine incorporation, A375; type: cell-based; details: Homo sapiens, A-375; Cell Line A375
Description: as §1

CDK1:Cyclin-B = molecular target: T1, CDK1:Cyclin-B (Homo sapiens, UniProt P06493); experiment: CDK1 Screening Assay; type: biochemical; details: read-out: Kinase Assay (IC50 uM) CDK1
T1 construct: purchased New England Biolabs, Beverly, MA 6020; host or cells: insect cells
Description: (§2) 70 µL of the kinase reaction mixture was dispensed into the well of a streptavidin coated FlashPlate™ (Cat. # SMP103, NEN, Boston, MA). Then 1 µL of test compound stock in 100% DMSO was added to the wells resulting in a final concentration of 1% DMSO in the reaction with a 100 µl final reaction volume. Next, CDK1:Cyclin-B protein was diluted in 50 mM Tris-HCl pH=8.0, 0.1% BSA at a concentration of 1 ng per µL and 30 µl (30ng enzyme per test well) was added to each well to initiate the reaction. The reaction was incubated for one hour at 30°C. At the end of the 1-hour incubation, the reaction was terminated by aspirating the reaction mixture from the plate and washing the wells twice with PBS containing 100 mM EDTA. The histone-H1 biotinylated peptide substrate became immobilized on the Flashplate™ and the incorporation of ^33P-γ-ATP was measured by reading the plate on a scintillation counter. Inhibition of the enzymatic activity of CDK1 was measured by observing a reduced amount of ^33P-γ-ATP incorporated into the immobilized peptide. […]

[1] = molecular target: T2, VEGF-R (vascular endothelial growth factor receptor-2) (Rattus norvegicus, UniProt O08775); experiment: VEGF-R Screening Assay; type: biochemical; details: read-out: Kinase Assay (IC50 uM) VEGF-R
T2 construct: 6xHis (polyhistidine) (N)
Description: as §2, with “a 100 µL final reaction” for “a 100 µl final reaction”, “volume. Next, soluble rat tyrosine kinase containing an N-terminal 6XHIS tag was diluted” for “volume. Next, CDK1:Cyclin-B protein was diluted”, “concentration of 5 ng per” for “concentration of 1 ng per”, “and 30 µL (150 ng enzyme per” for “and 30 µl (30ng enzyme per”, “EDTA. The PLC1 biotinylated peptide” for “EDTA. The histone-H1 biotinylated peptide”, “activity of the VEGF-R was measured” for “activity of CDK1 was measured”

[2] = test system: HeLa cervical adenocarcinoma; experiment: Inhibition of Cell Proliferation, 14C-thymidine incorporation, HeLa; type: cell-based; details: Homo sapiens; Cell Line HeLa
Description: as §1

[3] = molecular target: T3, EGFR (epidermal growth factor receptor) (Homo sapiens, UniProt P00533); experiment: Kinase Selectivity Assay EGF-R; type: biochemical
T3 construct: is purified from human A431 cell membranes (Sigma, St. Louis, MO, Cat.# E3641); purchased Sigma, St. Louis, MO E3641; host or cells: human A431 cell membranes (endogenous protein)

[4] = molecular target: T4, HER2 (human epidermal growth factor receptor-2) (Homo sapiens, UniProt P04626); experiment: Kinase Selectivity Assay HER2; type: biochemical; details: read-out: Kinase Assay (IC50 uM) HER2 Kinase
T4 construct: begins at amino acid 676 followed by the remainder of the HER2 cytoplasmic domain; polyhistidine (N)

[5] = test system: PC-3 prostate adenocarcinoma; experiment: Inhibition of Cell Proliferation, 14C-thymidine incorporation, PC-3; type: cell-based; details: Cell Line PC-3
Description: as §1

Insulin Receptor Kinase = Insulin Receptor Kinase (Homo sapiens, UniProt P06213); experiment: Kinase Selectivity Assay Insulin Receptor Kinase; type: biochemical; details: read-out: Kinase Assay (IC50 uM) Insulin R Kinase
[6] = molecular target: T5, CDK2 in complex with cyclin A (Homo sapiens, UniProt P24941); experiment: Kinase Selectivity Assay CDK2; type: biochemical
T5 construct: purchased Upstate Biotech, Lake Placid, NY

MDA-MB-231 = experiment: Inhibition of Cell Proliferation, 14C-thymidine incorporation, MDA-MB-231; type: cell-based; details: Homo sapiens; Cell Line MDA-MB-231
Description: The ability of a test compound to inhibit the proliferation of cell growth was determined by measuring incorporation of ^14C-labelled thymidine into newly synthesized DNA within the cells. […] Cells were trypsinized and counted and 3000-8000 cells were added to each well of a 96-well CytoStar tissue culture treated scintillating microplate (Amersham #RPNQ0160) in complete medium in a volume of 100 µl. Cells were incubated for 24 hours in complete medium at 37°C in an atmosphere containing 5% CO2. Next, 1 µl of test compound in 100% DMSO was added to the wells of the plate. DMSO only was added to control wells. Cells were incubated for 24 more hours in complete medium at 37°C in an atmosphere containing 5% CO2. […] The plate was incubated for 24 hours at 37°C plus 5% CO2 in drug plus ^14C-thymidine. The contents of the plate were discarded into a ^14C radioactive waste container by inverting the plate and the plate was washed twice with 200 µl PBS. 200 µl of PBS is added to each well. […] The degree of methyl ^14C-thymidine incorporation was quantified on a Packard Top Count.

[7] = read-out: Kinase Assay (IC50 uM) EGF-R

T4 sequence (P04626 676-1255 limits assumed): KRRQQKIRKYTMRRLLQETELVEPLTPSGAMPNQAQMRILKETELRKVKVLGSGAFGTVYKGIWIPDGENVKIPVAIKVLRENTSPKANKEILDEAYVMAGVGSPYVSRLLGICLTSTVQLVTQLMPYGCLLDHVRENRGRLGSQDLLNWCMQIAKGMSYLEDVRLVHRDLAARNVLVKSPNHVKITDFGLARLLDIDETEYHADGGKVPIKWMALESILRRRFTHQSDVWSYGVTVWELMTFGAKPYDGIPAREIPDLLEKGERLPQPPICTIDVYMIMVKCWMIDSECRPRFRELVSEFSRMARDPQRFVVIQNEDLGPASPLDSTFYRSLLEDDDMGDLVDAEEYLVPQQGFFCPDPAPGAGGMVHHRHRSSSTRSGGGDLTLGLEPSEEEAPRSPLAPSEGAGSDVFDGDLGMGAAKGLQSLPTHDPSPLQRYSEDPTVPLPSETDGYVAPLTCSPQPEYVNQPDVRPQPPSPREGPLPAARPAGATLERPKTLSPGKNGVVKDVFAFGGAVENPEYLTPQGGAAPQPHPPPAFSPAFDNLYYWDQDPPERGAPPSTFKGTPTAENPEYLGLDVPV
T3 sequence (P00533 25-1210): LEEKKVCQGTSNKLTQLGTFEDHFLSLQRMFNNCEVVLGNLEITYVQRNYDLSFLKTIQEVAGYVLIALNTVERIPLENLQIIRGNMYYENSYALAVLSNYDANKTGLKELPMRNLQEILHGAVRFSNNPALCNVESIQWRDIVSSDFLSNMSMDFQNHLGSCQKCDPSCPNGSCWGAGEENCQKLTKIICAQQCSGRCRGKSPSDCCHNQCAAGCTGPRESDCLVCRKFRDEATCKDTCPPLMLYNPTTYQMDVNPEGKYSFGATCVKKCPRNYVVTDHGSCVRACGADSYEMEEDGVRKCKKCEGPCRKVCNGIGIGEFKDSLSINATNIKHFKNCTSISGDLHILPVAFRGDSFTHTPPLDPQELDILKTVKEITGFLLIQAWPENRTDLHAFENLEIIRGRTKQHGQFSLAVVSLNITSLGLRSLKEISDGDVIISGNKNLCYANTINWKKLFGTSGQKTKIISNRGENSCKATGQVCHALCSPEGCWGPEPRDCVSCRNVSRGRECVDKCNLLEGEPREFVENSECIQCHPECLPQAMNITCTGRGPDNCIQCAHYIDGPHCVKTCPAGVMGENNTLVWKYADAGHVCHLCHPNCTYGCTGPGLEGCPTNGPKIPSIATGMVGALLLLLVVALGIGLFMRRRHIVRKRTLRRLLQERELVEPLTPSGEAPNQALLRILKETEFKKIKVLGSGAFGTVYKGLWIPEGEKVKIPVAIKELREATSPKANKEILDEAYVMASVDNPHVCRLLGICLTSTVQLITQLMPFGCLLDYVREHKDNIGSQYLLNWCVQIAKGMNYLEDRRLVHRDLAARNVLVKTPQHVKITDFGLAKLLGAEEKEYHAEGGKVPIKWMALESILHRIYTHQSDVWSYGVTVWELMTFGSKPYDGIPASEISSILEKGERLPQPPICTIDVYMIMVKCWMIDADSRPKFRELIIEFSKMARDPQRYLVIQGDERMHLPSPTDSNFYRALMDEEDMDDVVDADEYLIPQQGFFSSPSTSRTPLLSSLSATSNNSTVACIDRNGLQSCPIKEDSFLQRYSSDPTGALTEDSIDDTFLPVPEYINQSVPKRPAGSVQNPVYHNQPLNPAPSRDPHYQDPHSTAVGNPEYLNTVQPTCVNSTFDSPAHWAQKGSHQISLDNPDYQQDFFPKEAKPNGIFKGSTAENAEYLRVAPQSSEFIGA
T2 sequence (O08775 786-1343): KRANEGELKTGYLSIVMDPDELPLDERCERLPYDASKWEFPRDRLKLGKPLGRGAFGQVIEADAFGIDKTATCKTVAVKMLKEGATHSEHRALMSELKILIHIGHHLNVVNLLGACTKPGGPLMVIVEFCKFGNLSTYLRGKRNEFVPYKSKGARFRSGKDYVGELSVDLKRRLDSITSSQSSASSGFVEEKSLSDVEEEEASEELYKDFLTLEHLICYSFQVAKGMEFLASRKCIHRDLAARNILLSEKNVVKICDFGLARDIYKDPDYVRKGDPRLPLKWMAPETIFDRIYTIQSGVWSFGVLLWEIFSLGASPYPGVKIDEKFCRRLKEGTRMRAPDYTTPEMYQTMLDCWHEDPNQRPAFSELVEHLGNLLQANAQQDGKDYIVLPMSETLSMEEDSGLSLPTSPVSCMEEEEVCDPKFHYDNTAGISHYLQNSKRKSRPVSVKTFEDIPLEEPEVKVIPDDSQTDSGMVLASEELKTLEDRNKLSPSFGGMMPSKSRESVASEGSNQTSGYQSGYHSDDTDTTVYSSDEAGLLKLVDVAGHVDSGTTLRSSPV
T1 sequence (P06493 whole entry): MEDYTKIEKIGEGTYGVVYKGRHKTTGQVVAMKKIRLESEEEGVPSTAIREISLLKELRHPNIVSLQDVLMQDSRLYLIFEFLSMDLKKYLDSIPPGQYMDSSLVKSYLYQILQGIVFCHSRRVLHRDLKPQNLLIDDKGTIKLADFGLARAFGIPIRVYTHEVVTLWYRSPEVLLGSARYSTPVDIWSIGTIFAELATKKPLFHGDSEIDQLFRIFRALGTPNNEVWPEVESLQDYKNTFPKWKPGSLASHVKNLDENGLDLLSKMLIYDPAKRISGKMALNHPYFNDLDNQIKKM
T1 sequence (P14635 whole entry partner): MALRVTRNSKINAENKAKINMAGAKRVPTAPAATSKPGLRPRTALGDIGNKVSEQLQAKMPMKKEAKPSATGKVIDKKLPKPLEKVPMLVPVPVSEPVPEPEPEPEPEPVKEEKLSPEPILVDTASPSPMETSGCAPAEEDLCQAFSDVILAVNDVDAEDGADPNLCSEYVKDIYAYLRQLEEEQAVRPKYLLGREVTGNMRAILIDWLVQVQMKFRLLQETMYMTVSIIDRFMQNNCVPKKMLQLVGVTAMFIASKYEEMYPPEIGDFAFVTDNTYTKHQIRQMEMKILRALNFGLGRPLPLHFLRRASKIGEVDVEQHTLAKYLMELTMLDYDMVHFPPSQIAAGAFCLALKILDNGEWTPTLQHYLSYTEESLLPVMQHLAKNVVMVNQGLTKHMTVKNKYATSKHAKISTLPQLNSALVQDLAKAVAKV
Sequence of Insulin Receptor Kinase (P06213 980-1352): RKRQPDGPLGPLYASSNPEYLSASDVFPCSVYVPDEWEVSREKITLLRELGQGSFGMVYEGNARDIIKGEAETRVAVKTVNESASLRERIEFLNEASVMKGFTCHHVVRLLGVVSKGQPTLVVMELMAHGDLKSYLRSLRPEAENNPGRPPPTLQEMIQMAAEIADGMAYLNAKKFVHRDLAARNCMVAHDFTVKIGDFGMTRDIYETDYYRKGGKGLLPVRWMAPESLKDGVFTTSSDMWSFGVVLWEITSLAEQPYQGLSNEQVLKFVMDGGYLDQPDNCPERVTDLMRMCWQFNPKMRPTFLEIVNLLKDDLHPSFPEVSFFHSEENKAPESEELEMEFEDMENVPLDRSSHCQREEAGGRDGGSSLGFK

Q: Which results are given for CCc1ccc(C(=O)n2nc(Nc3ccc(S(=O)(=O)Nc4ccccn4)cc3)nc2N)s1 [Cpd 119, 4-[[5-amino-1-[(5-ethyl-2-thienyl)carbonyl]-1H-1,2,4-triazol-3-yl]amino]-N-(2-pyridinyl)-benzenesulfonamide]?
A: IC50 (HCT-116 colon carcinoma): 117 nM; IC50 (PKC (protein kinase-C)): > 100 µM; IC50 (A375 malignant melanoma): 199 nM; IC50 (CDK1:Cyclin-B): 0.067 µM; IC50 [1]: 0.057 µM; IC50 [2]: 146 nM

Q: For Cc1ccc(F)c(C(=O)n2nc(Nc3ccc(S(N)(=O)=O)cc3)nc2N)c1Cl [Cpd 69, 4-[[5-amino-1-(2-chloro-6-fluoro-3-methylbenzoyl)-1H-1,2,4-triazol-3-yl]amino]-benzenesulfonamide], which IC50 [3, 7] is on record?
A: > 100 µM

Q: And the IC50 [1]?
A: 0.685 µM

Q: What about the IC50 [4] of the same compound?
A: 0.139 µM

Q: What about the IC50 [5] of the same compound?
A: 8 nM

Q: Cc1ccsc1C(=O)n1nc(Nc2ccc(-n3cncn3)cc2)nc1N [Cpd 99, 1-[(3-methyl-2-thienyl)carbonyl]-N^3-[4-(1H-1,2,4-triazol-1-yl)phenyl]-1H-1,2,4-triazole-3,5-diamine] was tested. Which IC50 [3, 7] did it give?
A: > 100 µM

Q: And the IC50 (PKC (protein kinase-C))?
A: > 100 µM

Q: And the IC50 (CDK1:Cyclin-B)?
A: 0.366 µM

Q: What about the IC50 [4] of the same compound?
A: 0.095 µM

Q: With Cc1cc(C)c(C(=O)n2nc(Nc3ccc(NS(C)(=O)=O)cc3)nc2N)s1 [Cpd 108, N-[4-[[5-amino-1-[(3,5-dimethyl-2-thienyl)carbonyl]-1H-1,2,4-triazol-3-yl]amino]phenyl]-methanesulfonamide] as the compound, how does the IC50 (HCT-116 colon carcinoma) read?
A: 76 nM

Q: And the IC50 [3, 7]?
A: > 100 µM

Q: What about the IC50 (A375 malignant melanoma) of the same compound?
A: 259 nM

Q: And the IC50 (Insulin Receptor Kinase)?
A: 0.81 µM

Q: And the IC50 [2]?
A: 221 nM

Q: Nc1nc(Nc2ccc(S(N)(=O)=O)cc2)n(C(=S)Nc2c(F)cccc2F)n1 [Cpd 128, 3-amino-5-[[4-(aminosulfonyl)phenyl]amino]-N-(2,6-difluorophenyl)-1H-1,2,4-triazole-1-carbothioamide] was tested. Which IC50 (HCT-116 colon carcinoma) did it give?
A: 910 nM

Q: And the IC50 [3, 7]?
A: > 100 µM

Q: What about the IC50 (A375 malignant melanoma) of the same compound?
A: 968 nM

Q: What about the IC50 [2] of the same compound?
A: 128 nM

Q: And the IC50 [4]?
A: 0.11 µM

Q: What does the source list for Nc1nc(Nc2ccc(S(N)(=O)=O)cc2)nn1C(=S)Nc1c(F)cccc1F [Cpd 66, 5-amino-3-[[4-(aminosulfonyl)phenyl]amino]-N-(2,6-difluorophenyl)-1H-1,2,4-triazole-1-carbothioamide]?
A: IC50 (HCT-116 colon carcinoma): 20 nM; IC50 (A375 malignant melanoma): 92 nM; IC50 [2]: 35 nM

Q: How did the IC50 [6] turn out when Nc1nc(Nc2cccc(Cl)c2)n(C(=O)c2ccccc2)n1 [Cpd 127, 1-benzoyl-N^5-(3-chlorophenyl)-1H-1,2,4-triazole-3,5-diamine] was run?
A: > 100 µM

Q: How did the IC50 [6] turn out when Nc1nc(Nc2cccc(Cl)c2)n(C(=O)c2c(F)cccc2F)n1 [Cpd 126, N^5-(3-chlorophenyl)-1-(2,6-difluorobenzoyl)-1H-1,2,4-triazole-3,5-diamine] was run?
A: > 100 µM

Q: For Cc1ccsc1C(=O)n1nc(Nc2ccc(S(N)(=O)=O)cc2)nc1N [Cpd 15, 4-[[5-amino-1-[(3-methyl-2-thienyl)carbonyl]-1H-1,2,4-triazol-3-yl]amino]-benzenesulfonamide], which IC50 (HCT-116 colon carcinoma) is on record?
A: 127 nM

Q: And the IC50 (A375 malignant melanoma)?
A: 247 nM

Q: And the IC50 [2]?
A: 91 nM

Q: And the IC50 [5]?
A: 107 nM

Q: With Cc1cc(C)c(C(=O)n2nc(Nc3ccc(S(N)(=O)=O)cc3)nc2N)s1 [Cpd 33, 4-[[5-amino-1-[(3,5-dimethyl-2-thienyl)carbonyl]-1H-1,2,4-triazol-3-yl]amino]-benzenesulfonamide] as the compound, how does the IC50 (HCT-116 colon carcinoma) read?
A: 27 nM

Q: What about the IC50 ([3]; Kinase Selectivity, Table 2, read-out: EGF-R IC50) of the same compound?
A: > 100 µM

Q: And the IC50 (MDA-MB-231)?
A: 171 nM

Q: What about the IC50 [2] of the same compound?
A: 72 nM

Q: And the IC50 [5]?
A: 37 nM
